Data: patent publication US20260028365A1 (BIOGEN MA INC., priority 2022, published 2026)
Read-outs that look alike come from different tables or passages of the source.

Assays:
[1] = target: JH2 domain of human Tyk2 (Homo sapiens (Human), UniProt P29597); experiment: JH2 Biochemical Assay (TR-FRET probe displacement); assay type: binding
[2] = target: JAK1 (Homo sapiens (Human), UniProt P23458); experiment: pSTAT3 Cell Assay (MSD, TF1 cells); assay type: cell-based
Outline: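 Serum-starved TF1 cells with endogenous JAK1/STAT3 were pretreated 1 h with compound in a 10-point four-fold dilution series from 10 μM, then stimulated with 30 ng/mL IL-6 for 15 min. pSTAT3 in lysates was quantified by MSD immunoassay, and IC50 came from 4-parameter logistic fits.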

[3] = target: JAK2 (Homo sapiens (Human), UniProt O60674); experiment: pSTAT5 Cell Assay (MSD, TF1 cells); assay type: cell-based
Experimental: Compounds of the disclosure were assessed for their ability to inhibit the JAK2 kinase activity on STAT5 utilizing an MSD-platform plate-based assay format. TF1 cells natively expressing STAT5 and JAK2 were serum-starved to reduce background phosphorylation levels, then cells were treated with compounds of disclosure for 1 hour with a 10-point four-fold dilution series starting at 10 μM. Cells were then stimulated with 30 ng/mL IL-3 for 15 minutes. Cells were then lysed and pSTAT5 levels were quantitated using an MSD plate-based assay with anti-STAT5 antibodies. The data were normalized and the percent activity versus log concentration of compound was fitted with a 4-parameter logistic model to generate a curve and an IC50 value.

[4] = target: Tyk2 (Homo sapiens (Human), UniProt P29597); experiment: pSTAT4 Cell Assay (MSD, NK92 cells); assay type: cell-based
[5] = JH2 domain of human Tyk2, TR-FRET probe displacement
[6] = TR-FRET probe displacement, JH2 domain of human Tyk2
[7] = TR-FRET probe displacement, JH2 domain

Chain of JAK2 (O60674 whole entry): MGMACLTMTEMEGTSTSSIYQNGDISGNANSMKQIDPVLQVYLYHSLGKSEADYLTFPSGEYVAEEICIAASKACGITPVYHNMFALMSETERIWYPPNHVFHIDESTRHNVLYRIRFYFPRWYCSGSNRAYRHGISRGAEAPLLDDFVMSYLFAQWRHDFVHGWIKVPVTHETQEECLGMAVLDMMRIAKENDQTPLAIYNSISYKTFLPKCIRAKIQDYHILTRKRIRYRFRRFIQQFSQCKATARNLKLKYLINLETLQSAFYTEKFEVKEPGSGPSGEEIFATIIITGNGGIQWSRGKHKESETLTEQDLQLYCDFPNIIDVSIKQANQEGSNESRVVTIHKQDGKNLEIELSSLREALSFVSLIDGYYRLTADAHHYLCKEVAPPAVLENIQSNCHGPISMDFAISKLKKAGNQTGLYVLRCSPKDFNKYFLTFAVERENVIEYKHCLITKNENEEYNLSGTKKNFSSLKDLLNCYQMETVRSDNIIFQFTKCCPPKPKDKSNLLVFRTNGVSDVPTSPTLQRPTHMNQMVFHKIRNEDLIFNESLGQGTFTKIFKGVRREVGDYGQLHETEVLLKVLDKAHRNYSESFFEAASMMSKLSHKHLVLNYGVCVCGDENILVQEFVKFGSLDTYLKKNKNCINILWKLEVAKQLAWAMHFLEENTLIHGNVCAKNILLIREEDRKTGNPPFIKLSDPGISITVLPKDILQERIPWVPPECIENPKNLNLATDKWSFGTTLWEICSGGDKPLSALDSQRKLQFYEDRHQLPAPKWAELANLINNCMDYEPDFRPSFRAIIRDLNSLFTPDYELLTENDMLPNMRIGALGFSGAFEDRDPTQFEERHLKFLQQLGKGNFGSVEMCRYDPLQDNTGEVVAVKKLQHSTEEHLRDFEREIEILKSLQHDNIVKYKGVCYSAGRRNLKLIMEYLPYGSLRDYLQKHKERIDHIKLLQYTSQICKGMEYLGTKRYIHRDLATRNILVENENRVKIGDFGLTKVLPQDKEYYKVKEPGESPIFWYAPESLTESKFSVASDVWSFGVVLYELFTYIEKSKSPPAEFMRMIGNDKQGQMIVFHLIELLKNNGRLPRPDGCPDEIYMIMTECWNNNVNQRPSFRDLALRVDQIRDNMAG
Chain of JH2 domain of human Tyk2 (P29597 575-876): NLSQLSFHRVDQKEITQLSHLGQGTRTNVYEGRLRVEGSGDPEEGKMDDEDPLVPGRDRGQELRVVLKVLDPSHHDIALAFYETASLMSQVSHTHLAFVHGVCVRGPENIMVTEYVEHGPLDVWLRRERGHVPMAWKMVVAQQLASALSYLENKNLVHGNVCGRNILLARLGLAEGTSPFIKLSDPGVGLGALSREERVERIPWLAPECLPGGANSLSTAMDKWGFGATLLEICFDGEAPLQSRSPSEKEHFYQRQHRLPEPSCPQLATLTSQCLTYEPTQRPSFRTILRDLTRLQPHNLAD
Chain of JAK1 (P23458 whole entry): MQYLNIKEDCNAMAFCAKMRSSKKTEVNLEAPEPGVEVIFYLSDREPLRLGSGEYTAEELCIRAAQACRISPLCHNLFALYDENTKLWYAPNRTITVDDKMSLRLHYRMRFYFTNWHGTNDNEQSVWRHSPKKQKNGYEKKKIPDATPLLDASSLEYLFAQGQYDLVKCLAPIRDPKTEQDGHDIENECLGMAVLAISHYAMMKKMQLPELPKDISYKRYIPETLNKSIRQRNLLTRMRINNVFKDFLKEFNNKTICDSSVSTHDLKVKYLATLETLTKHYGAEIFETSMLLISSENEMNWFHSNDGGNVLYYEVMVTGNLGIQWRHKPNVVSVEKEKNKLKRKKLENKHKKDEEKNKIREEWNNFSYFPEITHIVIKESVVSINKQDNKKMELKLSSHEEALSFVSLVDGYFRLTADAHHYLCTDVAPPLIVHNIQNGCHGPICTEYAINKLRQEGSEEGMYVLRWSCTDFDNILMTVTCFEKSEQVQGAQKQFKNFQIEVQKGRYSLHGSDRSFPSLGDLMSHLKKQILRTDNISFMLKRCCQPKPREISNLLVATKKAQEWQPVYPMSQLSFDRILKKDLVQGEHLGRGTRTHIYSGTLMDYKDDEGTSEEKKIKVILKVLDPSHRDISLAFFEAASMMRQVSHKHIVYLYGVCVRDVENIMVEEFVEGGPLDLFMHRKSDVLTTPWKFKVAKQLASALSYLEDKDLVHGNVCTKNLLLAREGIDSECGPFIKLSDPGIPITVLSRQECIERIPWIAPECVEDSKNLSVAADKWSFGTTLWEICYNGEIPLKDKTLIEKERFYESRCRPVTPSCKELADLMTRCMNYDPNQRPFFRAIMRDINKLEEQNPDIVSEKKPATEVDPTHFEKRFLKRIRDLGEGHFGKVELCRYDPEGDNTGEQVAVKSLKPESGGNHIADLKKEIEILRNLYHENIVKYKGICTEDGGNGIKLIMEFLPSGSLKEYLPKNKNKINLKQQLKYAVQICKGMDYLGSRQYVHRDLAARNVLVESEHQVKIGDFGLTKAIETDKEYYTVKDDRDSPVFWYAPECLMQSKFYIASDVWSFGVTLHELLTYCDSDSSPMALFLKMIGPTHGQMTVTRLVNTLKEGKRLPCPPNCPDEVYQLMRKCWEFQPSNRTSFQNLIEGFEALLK
Chain of Tyk2 (P29597 whole entry, the tested form may be a part): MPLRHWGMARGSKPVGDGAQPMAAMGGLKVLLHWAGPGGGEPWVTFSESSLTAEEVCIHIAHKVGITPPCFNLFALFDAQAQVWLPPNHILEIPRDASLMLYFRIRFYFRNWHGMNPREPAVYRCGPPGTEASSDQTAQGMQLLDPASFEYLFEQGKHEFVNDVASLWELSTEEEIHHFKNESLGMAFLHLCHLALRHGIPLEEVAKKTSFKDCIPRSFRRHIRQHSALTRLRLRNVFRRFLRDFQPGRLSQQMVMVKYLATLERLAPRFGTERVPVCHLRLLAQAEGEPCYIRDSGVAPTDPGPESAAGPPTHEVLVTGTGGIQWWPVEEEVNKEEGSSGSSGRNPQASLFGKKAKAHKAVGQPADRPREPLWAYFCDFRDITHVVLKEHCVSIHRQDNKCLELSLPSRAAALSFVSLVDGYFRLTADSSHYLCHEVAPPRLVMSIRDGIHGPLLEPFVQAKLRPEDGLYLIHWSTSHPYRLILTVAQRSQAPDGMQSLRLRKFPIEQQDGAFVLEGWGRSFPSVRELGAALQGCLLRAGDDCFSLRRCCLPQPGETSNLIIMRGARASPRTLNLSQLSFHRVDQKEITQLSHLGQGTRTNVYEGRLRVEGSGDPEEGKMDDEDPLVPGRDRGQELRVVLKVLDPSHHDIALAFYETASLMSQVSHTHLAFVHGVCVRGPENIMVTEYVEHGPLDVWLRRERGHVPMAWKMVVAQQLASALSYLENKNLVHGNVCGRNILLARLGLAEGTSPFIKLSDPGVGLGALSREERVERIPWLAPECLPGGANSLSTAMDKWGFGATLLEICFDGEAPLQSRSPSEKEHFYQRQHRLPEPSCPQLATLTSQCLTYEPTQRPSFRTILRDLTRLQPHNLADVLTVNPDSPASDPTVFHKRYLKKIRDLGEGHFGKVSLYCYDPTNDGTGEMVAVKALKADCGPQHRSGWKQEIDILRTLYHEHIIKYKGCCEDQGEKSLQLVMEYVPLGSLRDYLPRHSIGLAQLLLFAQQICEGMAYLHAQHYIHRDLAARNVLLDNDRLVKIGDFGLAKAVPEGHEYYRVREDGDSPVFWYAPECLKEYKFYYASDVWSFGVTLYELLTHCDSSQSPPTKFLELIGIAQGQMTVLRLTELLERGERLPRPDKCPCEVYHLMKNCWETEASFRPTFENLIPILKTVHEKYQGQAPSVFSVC

Compound	IC50 [1, 5] [nM]	IC50 ([2]; IL-6 stimulated, MSD) [nM]	IC50 ([3]; IL-3 stimulated, MSD) [nM]	IC50 ([4]; MSD) [nM]	IC50 [1, 6] [nM]	IC50 ([2]; IL-6 stimulation, MSD) [nM]	IC50 ([3]; IL-3 stimulation, MSD) [nM]	IC50 [1, 7] [nM]	IC50 ([2]; IL-6 stimulated) [nM]	IC50 ([3]; IL-3 stimulated) [nM]	IC50 [4] [nM]
CCc1cc(Nc2cc(NC(C)=O)ncc2-c2ccc(COC)cn2)nc(C23COC(C2)C3)n1 [Example 566, N-(4′-((2-(2-oxabicyclo[2.1.1]hexan-4-yl)-6-ethylpyrimidin-4-yl)amino)-5-(methoxymethyl)-[2,3′-bipyridin]-6′-yl)acetamide]	≤ 10	≥ 1000	≥ 1000	≤ 10							
COCc1nccc(-c2cnc(NC(C)=O)cc2Nc2cc(C)nc(C(C)(F)F)n2)n1 [Example 661, N-(4-((2-(1,1-difluoroethyl)-6-methylpyrimidin-4-yl)amino)-5-(2-(methoxymethyl)pyrimidin-4-yl)pyridin-2-yl)acetamide]	≤ 10	≥ 1000	≥ 1000	≤ 10							
COc1cc(-c2cnc(NC(C)=O)cc2Nc2ccnc(C(C)(C)F)n2)ncn1 [Example 195, N-(4-((2-(2-fluoropropan-2-yl)pyrimidin-4-yl)amino)-5-(6-methoxypyrimidin-4-yl)pyridin-2-yl)acetamide]				10 to 100	≤ 10	≥ 1000	≥ 1000				
[2H]C([2H])([2H])C([2H])([2H])Oc1cnc(NC(C)=O)cc1Nc1cc(NC2CCC2)nc(C(C)(F)F)n1 [Example 488, N-(4-((6-(cyclobutylamino)-2-(1,1-difluoroethyl)pyrimidin-4-yl)amino)-5-(ethoxy-d5)pyridin-2-yl)acetamide]	≤ 10	≥ 1000	≥ 1000	≤ 10							
CC(=O)Nc1cc(Nc2cc(C)nc(C(C)(F)F)n2)c(-c2cn3ccnc3cn2)cn1 [Example 681, N-(4-((2-(1,1-difluoroethyl)-6-methylpyrimidin-4-yl)amino)-5-(imidazo[1,2-a]pyrazin-6-yl)pyridin-2-yl)acetamide]	≤ 10	≥ 1000	≥ 1000	≤ 10							
CCOc1cnc(NC(C)=O)cc1Nc1nccc(C(C)(F)F)n1 [Example 3, N-(4-((4-(1,1-difluoroethyl)pyrimidin-2-yl)amino)-5-ethoxypyridin-2-yl)acetamide]				10 to 100	≤ 10	≥ 1000	≥ 1000				
CC(=O)Nc1cc(Nc2cc(C)nc(C(C)(F)F)n2)c(-c2ncc(C#N)cn2)cn1 [Example 655, N-(5-(5-cyanopyrimidin-2-yl)-4-((2-(1,1-difluoroethyl)-6-methylpyrimidin-4-yl)amino)pyridin-2-yl)acetamide]	≤ 10	≥ 1000	≥ 1000	10 to 100							
CC(=O)Nc1cc(Nc2cc(C)nc(C(C)(F)F)n2)c(OCC2COC(C)(C)CO2)cn1 (stereo not drawn) [Example 430, N-(4-((2-(1,1-difluoroethyl)-6-methylpyrimidin-4-yl)amino)-5-((5,5-dimethyl-1,4-dioxan-2-yl)methoxy)pyridin-2-yl)acetamide]	≤ 10	≥ 1000	≥ 1000	10 to 100							
COc1ccc(-c2cnc(NC(C)=O)cc2Nc2cc(C)nc(C(C)(F)F)n2)nn1 [Example 676, N-(4-((2-(1,1-difluoroethyl)-6-methylpyrimidin-4-yl)amino)-5-(6-methoxypyridazin-3-yl)pyridin-2-yl)acetamide]	≤ 10	≥ 1000	≥ 1000	≤ 10							
CC(=O)Nc1cc(Nc2ccnc(C(C)(F)F)n2)c(-c2ncc(OC(F)F)cn2)cn1 [Example 825, N-(4-((2-(1,1-difluoroethyl)pyrimidin-4-yl)amino)-5-(5-(difluoromethoxy)pyrimidin-2-yl)pyridin-2-yl)acetamide]								≤ 10	≥ 1000	≥ 1000	10 to 100
CCc1cc(Nc2cc(NC(C)=O)ncc2-c2cnc(COC)cn2)nc(C(C)(F)F)n1 [Example 836, N-(4-((2-(1,1-difluoroethyl)-6-ethylpyrimidin-4-yl)amino)-5-(5-(methoxymethyl)pyrazin-2-yl)pyridin-2-yl)acetamide]								≤ 10	≥ 1000	≥ 1000	≤ 10
CC(=O)Nc1cc(Nc2cc(C)nc(C(C)(F)F)n2)c(-c2ncc(OC(F)F)cn2)cn1 [Example 660, N-(4-((2-(1,1-difluoroethyl)-6-methylpyrimidin-4-yl)amino)-5-(5-(difluoromethoxy)pyrimidin-2-yl)pyridin-2-yl)acetamide]	≤ 10	≥ 1000	≥ 1000	≤ 10							
CC(=O)Nc1cc(Nc2cc(C)nc(C(C)(F)F)n2)c(-c2ccn(C3CC3)n2)cn1 [Example 602, N-(5-(1-cyclopropyl-1H-pyrazol-3-yl)-4-((2-(1,1-difluoroethyl)-6-methylpyrimidin-4-yl)amino)pyridin-2-yl)acetamide]	≤ 10	≥ 1000	≥ 1000	≤ 10							
[2H]C([2H])([2H])C([2H])([2H])Oc1cnc(NC(C)=O)cc1Nc1cc(C(C)C)nc(C(C)(F)F)n1 [Example 362, N-(4-((2-(1,1-difluoroethyl)-6-isopropylpyrimidin-4-yl)amino)-5-(ethoxy-d5)pyridin-2-yl)acetamide]				10 to 100	≤ 10	≥ 1000	≥ 1000				
CC(=O)Nc1cc(Nc2ccnc(C(C)(F)F)n2)c(-c2cn(C)c(C#N)n2)cn1 [Example 707, N-(5-(2-cyanO1-methyl-1H-imidazol-4-yl)-4-((2-(1,1-difluoroethyl)pyrimidin-4-yl)amino)pyridin-2-yl)acetamide]	≤ 10	≥ 1000	≥ 1000	≤ 10							
CCOc1cnc(NC(C)=O)cc1Nc1cc(O[C@H]2C[C@H](OC)C2)cc(C(C)(F)F)n1 [Example 14, N-(4-((6-(1,1-difluoroethyl)-4-((1r,3r)-3-methoxycyclobutoxy)pyridin-2-yl)amino)-5-ethoxypyridin-2-yl)acetamide]				10 to 100	≤ 10	≥ 1000	≥ 1000				
COCCOc1cnc(NC(C)=O)cc1Nc1cc(C)nc(C(C)(F)F)n1 [Example 22, N-(4-((2-(1,1-difluoroethyl)-6-methylpyrimidin-4-yl)amino)-5-(2-methoxyethoxy)pyridin-2-yl)acetamide]				≤ 10	≤ 10	≥ 1000	≥ 1000				
CCOc1cnc(NC(C)=O)cc1Nc1cc(-c2cnn(CC)c2)nc(C(C)(F)F)n1 [Example 311, N-(4-((2-(1,1-difluoroethyl)-6-(1-ethyl-1H-pyrazol-4-yl)pyrimidin-4-yl)amino)-5-ethoxypyridin-2-yl)acetamide]				10 to 100	≤ 10	≥ 1000	≥ 1000				
CCOc1cc(Nc2cc(NC(C)=O)ncc2OCCOC)nc(C(C)(F)F)n1 [Example 77, N-(4-((2-(1,1-difluoroethyl)-6-ethoxypyrimidin-4-yl)amino)-5-(2-methoxyethoxy)pyridin-2-yl)acetamide]				≤ 10	≤ 10	≥ 1000	≥ 1000				
CCOc1cnc(NC(C)=O)cc1Nc1cc(-c2cnn(C)c2)nc(C(C)(F)F)n1 [Example 302, N-(4-((2-(1,1-difluoroethyl)-6-(1-methyl-1H-pyrazol-4-yl)pyrimidin-4-yl)amino)-5-ethoxypyridin-2-yl)acetamide]				10 to 100	≤ 10	≥ 1000	≥ 1000				
CC(=O)Nc1cc(Nc2cc(OC3CC3)nc(C(C)(F)F)n2)c(O[C@H]2C[C@@H](F)C2)cn1 [Example 353, N-(4-((6-cyclopropoxy-2-(1,1-difluoroethyl)pyrimidin-4-yl)amino)-5-((1s,3s)-3-fluorocyclobutoxy)pyridin-2-yl)acetamide]				≤ 10	≤ 10	≥ 1000	≥ 1000				
CC(=O)Nc1cc(Nc2cc(OC3CC3)nc(C(C)(F)F)n2)c(OC[C@H]2COCCO2)cn1 (single isomer, unassigned) [Example 454, (R)-N-(5-((1,4-dioxan-2-yl)methoxy)-4-((6-cyclopropoxy-2-(1,1-difluoroethyl)pyrimidin-4-yl)amino)pyridin-2-yl)acetamide or (S)-N-(5-((1,4-dioxan-2-yl)methoxy)-4-((6-cyclopropoxy-2-(1,1-difluoroethyl)pyrimidin-4-yl)amino)pyridin-2-yl)acetamide]	≤ 10	≥ 1000	≥ 1000	≤ 10							
CC(=O)Nc1cc(Nc2cc(C)nc(C(C)(F)F)n2)c(-c2cc3n(n2)CCOC3)cn1 [Example 528, N-(4-((2-(1,1-difluoroethyl)-6-methylpyrimidin-4-yl)amino)-5-(6,7-dihydrO4H-pyrazolo[5,1-c][1,4]oxazin-2-yl)pyridin-2-yl)acetamide]	≤ 10	≥ 1000	≥ 1000	≤ 10							
CCC(=O)Nc1cc(Nc2cc(CC)nc(C(C)(F)F)n2)c(OCCOC)cn1 [Example 88, N-(4-((2-(1,1-difluoroethyl)-6-ethylpyrimidin-4-yl)amino)-5-(2-methoxyethoxy)pyridin-2-yl)propionamide]				≤ 10	≤ 10	≥ 1000	≥ 1000				
